Experimental data taken from patent US10905680B2, “Methods of treatment for cholestatic and fibrotic diseases” (Genfit, priority 2016, dated 2021).

Legend:
[1] = test system: Normal Human Lung Fibroblasts (NHLF); experiment: TGFβ1-induced expression of α-SMA protein in human lung fibroblasts (ELISA); format: cell-based; details: concentration of 1 μM; TGFβ1 1 ng/ml, 48 hours
Procedure: NTZ (A) or TZ (B) was added to serum-deprived lung fibroblasts (NHLF) 1 hour before the activation with TGFβ1 (1 ng/ml). After 48 hours of incubation, the expression of α-SMA was measured by ELISA. The obtained values were transformed into percentage inhibition over TGFβ1 control. Data are presented as mean (triplicates)±standard deviation (SD). Statistical analyses were performed by one-way ANOVA followed by Bonferroni post-hoc tests, using Sigma Plot 11.0 software. [*: p<0.05; **: p<0.01; ***: p<0.001 (comparison versus TGFβ1 1 ng/mL group)].
The Normal Human Lung Fibroblasts (NHLF) (Lonza) were cultured in Fibroblast Basal Medium (FBM) (Lonza cat # CC-3131) that was supplemented with FGM-2 SingleQuots™ Kit (Lonza cat # CC-3132). The complete medium contains 2% fetal bovine serum. For the activation experiments with TGFβ1, the NHLF were plated at a density of 5×10^3 cells per well in 96-well plates. The next day, cell-culture medium was removed, and cells were washed with PBS (Invitrogen cat #14190). NHLF were deprived for 24 hours in serum-free, insulin-free and rhFGF-B-free medium. […]
The level of α-SMA was measured using a Sandwich ELISA. […]

[2] = test system: human renal interstitial fibroblasts (HRIF); experiment: TGFβ1-induced expression of α-SMA protein in human renal fibroblasts (ELISA); format: cell-based; details: TGFβ1 3 ng/ml, 48 hours
Procedure: Serum-deprived Human Renal Interstitial Fibroblasts (HRIF) were preincubated for 1 hour with NTZ (A) or TZ (B) before the activation with the profibrogenic cytokine TGFβ1 (3 ng/ml). After 48 hours of incubation, the expression of α-SMA was measured by ELISA. The obtained values were normalized over TGFβ1 control. Data are presented as mean (quadruplicates)±SEM (Standard Error of Mean). […] For the activation experiments with TGFβ1, the HRIF were plated at a density of 6.5×10^3 cells per well in 384-well plates. The next day, cell culture medium was removed, and cells were washed with PBS (Invitrogen cat #14190). HRIF were deprived for 24 hours in serum-free, and FGS-free medium. For the treatments with NTZ or TZ, the serum-deprived HRIF were preincubated for 1 hour with the compounds followed by addition of the profibrogenic stimuli TGFβ1 (PeproTech cat #100-21, 3 ng/mL) in serum-free, -FGS-free medium for an additional 48 hour period. Finally, the cells were washed with PBS (Invitrogen, cat #14190) before the addition of 30 μl of lysis buffer (CelLytic™ MT reagent; Sigma #C3228). Plates were then incubated for 30 min on ice using a plate shaker, and subsequently stored at −20° C. The level of α-SMA was measured using a Sandwich ELISA. Briefly, the wells of an ELISA plate were first coated with the capture antibody (mouse monoclonal anti-ACTA2, Abnova) at 4° C. overnight. […]

SMILES: O=C(Nc1ncc([N+](=O)[O-])s1)c1ccccc1O [TZ, 2-hydroxy-N-(5-nitro-2-thiazolyl)benzamide]
- antifibrotic effects (α-SMA) in normal human lung fibroblasts [1]: significant antifibrotic effects
- antifibrotic effects (α-SMA) in TGFβ-activated human renal interstitial fibroblasts [2]: significant and dose-dependent antifibrotic effects
